Test [1] addresses T1, Corticotropin-releasing factor receptor 2/Corticotropin-releasing factor-binding protein (Homo sapiens, UniProt P24387+Q13324).
T1 sequence (Q13324 whole entry): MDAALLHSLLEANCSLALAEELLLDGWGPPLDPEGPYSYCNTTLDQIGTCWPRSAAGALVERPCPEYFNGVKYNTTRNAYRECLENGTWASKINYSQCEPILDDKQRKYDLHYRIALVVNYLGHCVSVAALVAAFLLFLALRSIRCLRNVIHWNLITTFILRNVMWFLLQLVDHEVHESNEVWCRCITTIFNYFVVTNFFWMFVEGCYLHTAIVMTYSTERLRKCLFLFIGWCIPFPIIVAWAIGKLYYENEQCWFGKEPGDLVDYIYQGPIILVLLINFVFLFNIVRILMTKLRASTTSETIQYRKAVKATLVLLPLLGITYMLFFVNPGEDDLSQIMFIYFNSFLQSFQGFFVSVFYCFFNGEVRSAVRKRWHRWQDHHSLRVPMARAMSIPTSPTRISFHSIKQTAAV
T1 sequence (P24387 whole entry): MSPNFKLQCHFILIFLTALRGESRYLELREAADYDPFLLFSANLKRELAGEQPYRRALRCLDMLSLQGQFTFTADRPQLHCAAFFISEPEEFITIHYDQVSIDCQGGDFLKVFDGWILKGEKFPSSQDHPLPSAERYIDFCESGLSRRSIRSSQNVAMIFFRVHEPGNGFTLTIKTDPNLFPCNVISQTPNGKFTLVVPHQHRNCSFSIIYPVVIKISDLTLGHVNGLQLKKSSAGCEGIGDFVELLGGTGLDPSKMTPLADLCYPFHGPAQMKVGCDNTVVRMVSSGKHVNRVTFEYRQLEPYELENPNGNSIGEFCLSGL
The test is described as follows: Dose Response confirmation of uHTS hits for small molecule antagonists of the CRF-binding protein and CRF-R2 receptor complex. It counts as functional. The conditions noted are these: read-out: IC50_Mean.

Test [2] has as its target T1, Corticotropin-releasing factor receptor 2/Corticotropin-releasing factor-binding protein. Kind of test: activators of CRF receptor 2 with binding protein – uHTS hits, confirmation (AID 602473). It counts as functional. The conditions noted are these: read-out: EC50_Mean.
The next test concerns Vero. Kind of test: Vero cell toxicity, dose response, cytotoxicity control, plate reader, cherry-pick samples (AID 687020). The format is functional, cell-based. As to conditions: Chlorocebus sabaeus.
Test [3] is described as follows: inhibitors of intracellular T. cruzi replication, confirmation, NIH3T3 host cells, beta-gal luminescence (AID 2044).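 Note: intracellular parasites grown in NIH/3T3 mouse fibroblasts as host cells; luminescent beta-galactosidase reporter signal from transgenic T. cruzi replicating inside host cells; inhibitors lower the luminescence signal.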 It counts as functional, cell-based.
A short description of test [4]: cytotoxicity toward NIH3T3 fibroblasts, dose response, counter-screen, cell-based, ATP luminescence, mouse fibroblasts (AID 2010).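 Note: cells exposed to compound for about 90 hours before reading.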 The format is functional. For orientation: The purpose of a counterscreen is to sort out artefacts and off-target activity.
The nature of test [5]: inhibitors of HIV Env-driven cell fusion, dose response, cherry-pick (AID 652057). The format is functional, cell-based.
A short description of test [6]: CEM21 lymphoblast cell cytotoxicity, dose response, cytotoxicity control for viral fusion inhibitor project, CellTiter-Glo luminescence, cherry-picked (AID 652042).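 Note: potency for signal decrease meaning cytotoxicity.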 The format is functional, cell-based.
Test [7] can be described thus: ZM109 Env clade C HIV-1 fusion inhibitors, dose response, HeLa effector, CEM target cells, luciferase, cherry-pick (AID 652058). The format is functional, cell-based.
Test [8] can be described thus: off-target signal loss in HeLa-CEM21 co-culture – HeLa F-luc CTL cells, cherry-picked, counter-screen for HIV-1 Env fusion inhibitor project, dose response (AID 652040).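 Note: potency for signal decrease marking cytotoxic or nonspecific inhibition.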 The format is functional, cell-based.
Test [9] can be described thus: inhibitors of clade B AD8 Env fusion, dose response, cell-based, cherry-pick (AID 652062).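 Note: luciferase signal from cell-cell fusion driven by HIV-1 clade B AD8 Env; potency is for inhibitors of fusion seen as a drop in luminescence.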 It counts as functional.
The nature of test [10]: Luminescence Cell-Based Dose Confirmation HTS to Identify Activators of 5'UTR Stem-Loop Driven Alpha-Synuclein mRNA Translation in H4 Neuroglioblastoma Cells. [Related pubchem assays: 1829 (Project Summary), 1814 (Primary HTS)]. The format is functional.
A short description of test [11]: Luminescence Cell-Based Dose Response HTS to Identify Activators of Luciferase Translation or Activity in H4 […] Cells. [Related pubchem assays: 1829 (Project Summary), 1814 (Primary HTS)]. The format is functional.
For a further test, the system named is H4. The test is described as follows: Luminescence Cell-Based Dose Response HTS to Identify Activators of 5'UTR Stem-Loop Driven Prion Protein mRNA Translation in H4 Neuroglioblastoma Cells. [Related pubchem assays: 1829 (Project Summary), 1814 (Primary HTS)]. The format is functional. The conditions noted are these: Homo sapiens.
Test [12] deals with Fructose-bisphosphate aldolase (Mycobacterium tuberculosis, UniProt P9WQA3). Kind of test: Fluorescence-based biochemical high throughput dose response assay for inhibitors of the fructose-bisphosphate aldolase (FBA) of M. tuberculosis. The format is functional.
A further test addresses Beta-galactosidase (Escherichia coli, UniProt Q8VNN2). Kind of test: Dose response counterscreen for EBI2 assay utilizing the enzyme, b-galactosidase. The format is functional.
For test [13], the target named is T2, RNA-binding protein pos-1 (Caenorhabditis elegans, UniProt G5EF15).
T2 sequence (G5EF15 whole entry): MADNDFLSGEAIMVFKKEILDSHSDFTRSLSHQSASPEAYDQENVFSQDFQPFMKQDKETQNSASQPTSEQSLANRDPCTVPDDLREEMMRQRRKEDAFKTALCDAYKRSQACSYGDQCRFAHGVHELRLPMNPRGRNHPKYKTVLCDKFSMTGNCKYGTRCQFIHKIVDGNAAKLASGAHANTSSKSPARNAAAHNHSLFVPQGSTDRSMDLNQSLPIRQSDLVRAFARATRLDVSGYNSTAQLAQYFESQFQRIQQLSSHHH
Kind of test: inhibitors of POS-1/mex-3 RNA binding, dose response, biochemical, fluorescence polarization (AID 1964).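 Note: purified POS-1 fused to maltose binding protein made in E. coli; potency of compounds blocking POS-1 binding to fluorescent RNA.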 For orientation: Polarisation of emitted light reports the rotation of a fluorescent probe.

In test [14] the target is T3, Zinc finger protein mex-5 (Caenorhabditis elegans, UniProt Q9XUB2).
T3 sequence (Q9XUB2 whole entry): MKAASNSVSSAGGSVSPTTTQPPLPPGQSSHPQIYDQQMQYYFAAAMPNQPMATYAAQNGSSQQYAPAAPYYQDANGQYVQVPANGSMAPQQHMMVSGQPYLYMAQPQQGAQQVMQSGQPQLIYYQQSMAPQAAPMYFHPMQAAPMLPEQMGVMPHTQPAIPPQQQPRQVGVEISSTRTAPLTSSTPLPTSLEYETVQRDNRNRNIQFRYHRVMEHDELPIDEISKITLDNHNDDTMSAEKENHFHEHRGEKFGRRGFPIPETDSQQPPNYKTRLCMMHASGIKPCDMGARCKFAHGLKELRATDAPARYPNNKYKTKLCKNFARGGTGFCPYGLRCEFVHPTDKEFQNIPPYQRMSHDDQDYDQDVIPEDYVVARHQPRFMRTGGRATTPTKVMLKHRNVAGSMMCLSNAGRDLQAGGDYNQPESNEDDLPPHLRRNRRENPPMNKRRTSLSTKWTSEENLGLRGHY
Kind of test: MEX-5/TCR-2 RNA interaction inhibitors, dose response, biochemical, C. elegans, fluorescence polarization (AID 1960).

In test [15] the target is T4, Endoribonuclease toxin MazF (Escherichia coli K-12, UniProt P0AE70).
T4 sequence (P0AE70 whole entry): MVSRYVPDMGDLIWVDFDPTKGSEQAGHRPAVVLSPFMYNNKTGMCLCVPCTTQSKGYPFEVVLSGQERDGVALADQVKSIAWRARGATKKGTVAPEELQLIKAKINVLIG
The test is described as follows: MazF toxin RNase activators, dose response, biochemical, fluorescence, single-stranded RNA substrate, uHTS hits (AID 588481). It counts as functional.

In test [16] the target is T4, Endoribonuclease toxin MazF. Kind of test: fluorescent RNA oligo signal without MazF, dose response, counter-screen for MazEF activator project, biochemical, fluorescence, single-stranded RNase substrate (AID 588502). It counts as functional.
For test [17], the target named is T5, Sentrin-specific protease 1 (Homo sapiens, UniProt Q9P0U3). Kind of test: potency of human SENP1 inhibitors, dose response, biochemical, kinetic FRET (AID 651697). The format is functional. As to conditions: read-out: IC50_Mean.
In test [18] the target is T5, Sentrin-specific protease 1. The test is described as follows: Dose response confirmation of small molecule inhibitors of the catalytic domain of the SUMO protease, SENP1 in a FRET assay. It counts as functional. As to conditions: read-out: IC50_Mean.
For test [19], the target named is ATP-dependent translocase ABCB1 (Homo sapiens, UniProt P08183). The test is described as follows: ABCB1 efflux pump inhibitor potency, dose response, Jurkat-DNR cells, JC-1, flow cytometry (AID 1689). It counts as functional.
Test [20] has as its target Broad substrate specificity ATP-binding cassette transporter ABCG2 (Homo sapiens, UniProt Q9UNQ0). Kind of test: ABCG2 efflux pump inhibitors, dose response, Ig-MXP3 cells, flow cytometry (AID 1690). The format is functional. (In general: Flow cytometry measures light scatter and fluorescence of single cells or particles in a stream.)

Activity calls are given as the source filed them.

T5 sequence (Q9P0U3 whole entry, the tested form may be a part): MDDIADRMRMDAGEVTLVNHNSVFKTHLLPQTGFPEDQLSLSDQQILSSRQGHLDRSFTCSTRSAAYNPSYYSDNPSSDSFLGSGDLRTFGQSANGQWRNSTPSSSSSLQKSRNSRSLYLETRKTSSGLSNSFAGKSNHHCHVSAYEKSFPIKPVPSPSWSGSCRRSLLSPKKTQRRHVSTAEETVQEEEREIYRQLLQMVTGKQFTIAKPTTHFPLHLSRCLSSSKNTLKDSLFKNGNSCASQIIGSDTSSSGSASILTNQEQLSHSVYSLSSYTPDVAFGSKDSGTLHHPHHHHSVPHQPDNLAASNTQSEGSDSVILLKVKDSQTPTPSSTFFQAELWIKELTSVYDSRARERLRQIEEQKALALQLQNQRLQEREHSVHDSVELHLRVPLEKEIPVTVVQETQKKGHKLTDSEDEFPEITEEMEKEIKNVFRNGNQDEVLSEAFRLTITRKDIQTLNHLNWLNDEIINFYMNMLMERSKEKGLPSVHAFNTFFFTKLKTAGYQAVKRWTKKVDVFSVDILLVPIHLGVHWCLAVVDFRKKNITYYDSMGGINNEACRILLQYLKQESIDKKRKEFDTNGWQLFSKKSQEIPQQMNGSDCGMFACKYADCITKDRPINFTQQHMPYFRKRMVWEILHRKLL
Broad substrate specificity ATP-binding cassette transporter ABCG2, sequence (Q9UNQ0 whole entry): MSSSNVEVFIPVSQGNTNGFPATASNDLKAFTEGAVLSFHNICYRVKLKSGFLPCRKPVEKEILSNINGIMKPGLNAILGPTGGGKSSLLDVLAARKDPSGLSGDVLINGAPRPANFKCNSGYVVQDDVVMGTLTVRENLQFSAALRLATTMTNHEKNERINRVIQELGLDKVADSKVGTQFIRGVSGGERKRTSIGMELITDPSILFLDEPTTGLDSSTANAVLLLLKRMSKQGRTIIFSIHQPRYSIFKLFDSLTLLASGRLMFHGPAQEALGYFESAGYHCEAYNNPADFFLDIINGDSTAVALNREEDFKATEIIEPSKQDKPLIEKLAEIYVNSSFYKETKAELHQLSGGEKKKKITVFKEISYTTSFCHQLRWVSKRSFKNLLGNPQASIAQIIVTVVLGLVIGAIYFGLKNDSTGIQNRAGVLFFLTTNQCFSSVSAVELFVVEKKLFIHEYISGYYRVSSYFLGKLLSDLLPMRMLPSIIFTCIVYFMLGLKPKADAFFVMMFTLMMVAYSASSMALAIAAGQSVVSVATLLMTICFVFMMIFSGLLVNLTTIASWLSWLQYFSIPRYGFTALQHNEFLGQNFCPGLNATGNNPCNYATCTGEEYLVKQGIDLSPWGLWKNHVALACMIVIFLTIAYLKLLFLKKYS
ATP-dependent translocase ABCB1, sequence (P08183 whole entry): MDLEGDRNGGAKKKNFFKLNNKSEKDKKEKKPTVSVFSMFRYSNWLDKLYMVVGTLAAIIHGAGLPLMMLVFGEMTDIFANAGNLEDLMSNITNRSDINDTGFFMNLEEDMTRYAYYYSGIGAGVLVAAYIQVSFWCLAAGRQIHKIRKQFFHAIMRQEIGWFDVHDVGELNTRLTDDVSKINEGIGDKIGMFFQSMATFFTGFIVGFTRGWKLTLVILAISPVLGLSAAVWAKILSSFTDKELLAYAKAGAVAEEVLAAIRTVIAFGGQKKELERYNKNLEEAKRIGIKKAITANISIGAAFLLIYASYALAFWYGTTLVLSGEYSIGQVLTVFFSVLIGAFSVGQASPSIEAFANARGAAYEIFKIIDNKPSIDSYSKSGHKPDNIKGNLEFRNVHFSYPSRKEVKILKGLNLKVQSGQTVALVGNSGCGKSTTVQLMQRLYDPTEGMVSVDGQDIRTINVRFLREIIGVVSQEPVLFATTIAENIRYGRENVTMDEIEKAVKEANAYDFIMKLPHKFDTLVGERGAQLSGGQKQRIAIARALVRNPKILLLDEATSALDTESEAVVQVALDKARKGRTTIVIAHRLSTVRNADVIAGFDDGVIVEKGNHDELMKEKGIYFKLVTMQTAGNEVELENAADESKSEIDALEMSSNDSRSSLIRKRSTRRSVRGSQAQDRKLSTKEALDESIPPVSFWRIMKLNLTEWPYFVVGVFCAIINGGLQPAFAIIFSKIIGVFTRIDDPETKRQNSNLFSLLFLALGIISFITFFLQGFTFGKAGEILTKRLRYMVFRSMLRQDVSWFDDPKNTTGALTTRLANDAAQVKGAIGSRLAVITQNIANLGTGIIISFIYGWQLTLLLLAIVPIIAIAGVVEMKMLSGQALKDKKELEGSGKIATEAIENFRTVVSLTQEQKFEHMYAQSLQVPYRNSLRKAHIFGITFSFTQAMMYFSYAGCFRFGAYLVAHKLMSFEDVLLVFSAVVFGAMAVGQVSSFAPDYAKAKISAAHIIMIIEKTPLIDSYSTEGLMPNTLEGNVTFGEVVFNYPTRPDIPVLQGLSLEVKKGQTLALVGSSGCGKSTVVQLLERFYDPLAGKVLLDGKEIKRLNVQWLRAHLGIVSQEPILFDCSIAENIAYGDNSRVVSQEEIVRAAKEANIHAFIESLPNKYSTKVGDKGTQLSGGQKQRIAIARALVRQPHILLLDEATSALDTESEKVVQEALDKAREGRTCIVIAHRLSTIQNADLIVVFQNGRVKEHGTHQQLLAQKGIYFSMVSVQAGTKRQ
Beta-galactosidase, sequence (Q8VNN2 whole entry): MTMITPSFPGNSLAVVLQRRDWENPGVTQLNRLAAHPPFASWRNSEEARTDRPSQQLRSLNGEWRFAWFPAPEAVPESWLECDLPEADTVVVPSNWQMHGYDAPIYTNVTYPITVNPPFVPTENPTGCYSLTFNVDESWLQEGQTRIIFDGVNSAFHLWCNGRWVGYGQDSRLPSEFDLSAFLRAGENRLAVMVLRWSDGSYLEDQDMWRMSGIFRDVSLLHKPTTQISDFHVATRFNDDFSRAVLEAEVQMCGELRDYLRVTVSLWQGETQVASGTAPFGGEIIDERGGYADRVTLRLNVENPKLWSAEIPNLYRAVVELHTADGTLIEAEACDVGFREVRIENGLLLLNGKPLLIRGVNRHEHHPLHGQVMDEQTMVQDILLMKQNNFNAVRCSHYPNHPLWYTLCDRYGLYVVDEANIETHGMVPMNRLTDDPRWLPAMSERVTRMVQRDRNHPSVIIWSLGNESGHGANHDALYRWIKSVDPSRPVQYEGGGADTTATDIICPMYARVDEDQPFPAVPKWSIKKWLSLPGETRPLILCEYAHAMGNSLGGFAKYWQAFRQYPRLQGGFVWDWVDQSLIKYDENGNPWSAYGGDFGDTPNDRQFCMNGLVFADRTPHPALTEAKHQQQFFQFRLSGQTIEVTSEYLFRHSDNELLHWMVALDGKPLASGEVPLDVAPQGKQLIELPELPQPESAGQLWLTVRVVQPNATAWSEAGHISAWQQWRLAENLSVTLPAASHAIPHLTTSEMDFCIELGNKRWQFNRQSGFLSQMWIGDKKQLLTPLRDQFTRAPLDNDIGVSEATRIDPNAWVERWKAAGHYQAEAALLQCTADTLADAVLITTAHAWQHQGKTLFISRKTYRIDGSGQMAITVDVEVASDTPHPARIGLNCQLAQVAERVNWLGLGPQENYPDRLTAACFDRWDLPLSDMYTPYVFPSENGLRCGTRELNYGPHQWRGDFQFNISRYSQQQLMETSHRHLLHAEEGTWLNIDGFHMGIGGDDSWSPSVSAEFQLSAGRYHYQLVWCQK
Fructose-bisphosphate aldolase, sequence (P9WQA3 whole entry): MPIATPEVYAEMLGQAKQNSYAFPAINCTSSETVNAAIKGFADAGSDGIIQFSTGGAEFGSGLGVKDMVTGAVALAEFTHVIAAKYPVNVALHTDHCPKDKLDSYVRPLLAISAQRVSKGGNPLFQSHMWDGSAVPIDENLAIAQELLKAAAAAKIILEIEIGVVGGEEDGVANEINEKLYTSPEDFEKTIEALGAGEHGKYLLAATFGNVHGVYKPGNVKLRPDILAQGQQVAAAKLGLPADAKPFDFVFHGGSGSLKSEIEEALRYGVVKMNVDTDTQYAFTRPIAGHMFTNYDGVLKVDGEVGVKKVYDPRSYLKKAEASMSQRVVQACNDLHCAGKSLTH

Regarding `CCCn1c(=N)n(CC(O)COc2ccc(C)cc2)c2ccccc21` (stereo not drawn), the IC50 in [1] is > 47.1 µM (inactive). Moreover, the EC50 in [2] was > 53 µM (inactive). In addition, the AC50 in the test on Vero is 24.6 µM (active).

Take `CCN(CC(O)CON=C1c2ccccc2-c2ccccc21)S(=O)(=O)c1ccc(Cl)cc1` (stereo not drawn): the EC50 in test [3] was 2.15 µM (active); in test [4], > 60 µM (not active). Moreover, the AC50 in [5] was 5.8 µM (active); in test [6], 29.3 µM (active); in test [7], 16.3 µM (active); in [8], 10.1 µM (active); in test [9], 28.6 µM (active).

Consider `Cc1ccc(C2CC(c3ccccc3)=NN2c2ccccc2)o1` (stereo not drawn), for which the EC50 is 111 µM (active) in [10], > 120 µM (not active) in test [11] and 27.9 µM (active) in the test on H4. In test [12], the IC50 was > 0.37 µM (active).

Consider `Cc1c(C(=O)N2CCN(c3ncccn3)CC2)oc2ccc(Cl)cc12`, for which, at Beta-galactosidase, the IC50 is > 80 µM (inactive).

`COc1ccc2c(c1)c1nc3ccccc3nc1n2Cc1ccc(OC)c(OC)c1`: the EC50 in test [13] is 32.6 µM (active); in test [14], 43.1 µM (active); in [15], > 99 µM (inactive); in [16] it was 87.9 µM (inactive). Moreover, the figures for the IC50 in [17] and in test [18] were 14.1 µM (active) and 6.84 µM (active), respectively.

On to `N#Cc1ccc(-c2ccc(OCC(=O)NCCc3ccccc3)cc2)cc1`, for which the values for the EC50 in test [19] and in test [20] were 11.1 µM (inactive) and 3.76 µM (active), respectively.

In general, AC50 refers to the concentration at which the activity in the assay is half-maximal.

The record behind these values is ChEMBL document CHEMBL1201862, “PubChem BioAssay data set” (2004).
